Data as given in patent US20110288125A1, “NOVEL USE OF PIPERINE” (Industry-Academic Cooperation Foundation, Yonsei University, priority 2009, published 2011).
Entries after “also recorded” stand apart in the source; their conditions may differ.

Tests used:
C57BL/6J mice = test: Body weight, food efficiency and abdominal fat-pad weights in mice on high-fat diet; format: in vivo, mouse; settings: 10 weeks
Protocol: The high-fat diet (HFD, 40% fat calorie, 17 g lard+3% corn oil/100 g diet) was used to induce obesity and piperine-containing diet had the same composition as the HFD except for containing 0.05% piperine. Normal diet (ND) was prepared according to AIN-76 rodent diet (see Table 1). [table] 5-week-old male C57BL/6J mice were accustomed to the laboratory environment for a week while feeding solid feed. […] Diet was provided between 10 and 11 a.m. every day along with water. Diet intake was measured every day, and body weight was measured every 3 days. In order to avoid transient body weight increase due to feed intake, body weight was measured 2 hours after removing the feedbox. […] In addition, food efficiency ratio (FER) was calculated by dividing accumulated body weight gain during test period into total diet uptake from the first day of test diet to sacrifice day. […] Further, regarding accumulation of abdominal fat, after fasting the test animal for at least 12 hours and anesthetizing with diethyl ether, blood, liver and abdominal fat tissues (epididymal, perirenal, mesenteric and retroperitoneal fat) were taken and weighed after washing with 0.1 M PBS (pH 7.4).

[1] = system: mouse adipocytes (3T3-L1); test: Adipocyte differentiation inhibition, Oil Red O staining; format: cell-based; settings: 14 days
Protocol: The effect of piperine on adipocyte differentiation and growth was investigated using mouse adipocytes (3T3-L1). Preadipocytes 3T3L1 were placed on a 12-well plate and cultured to confluency in a 5% CO2 incubator at 37° C. using DMEM containing 1% penicillin-streptomycin, 1% non-essential amino acids and 10% fetal bovine serum (FBS). The cultured 3T3-L1 cells were differentiated into adipocytes by culturing for 2 days in a medium containing 0.5 mM methylisobutylxanthine/1 μM dexamethasone/1 μg/mL insulin (DMI). The cells were differentiated into mature adipocytes by further culturing for 2 days in DMEM containing 1 μg/mL insulin. Subsequently, they were further cultured for 10 days while changing DMEM every other day to obtain fully differentiated adipocytes. Starting from the day when DMI was added to the 3T3-L1 cells, piperine was treated at concentrations of 0.1, 1, 10, 50 and 100 μM every other day. Piperine was purchased from Sigma and used after being dissolved in DMSO. For negative control, only DMSO was used. After the culturing for a total of 14 days, when the cells were fully differentiated, the medium was removed and the fats contained in the differentiated adipocytes were stained. […] To measure the triglyceride level of the differentiated 3T3-L1 cells, the stained cells were dissolved in 1 mL of isobutanol and OD value was measured at 600 nm.

Swiss albino mice = settings: piperine 100 mg/kg once a day for 4 weeks before benzo[α]pyrene 50 mg/kg twice a week for 16 weeks; cited from earlier work
[2] = 0.05% piperine in HFD, per unit body weight, FIG. 4

With `O=C(/C=C/C=C/c1ccc2c(c1)OCO2)N1CCCCC1` [piperine] the “decrease in body weight gain (accumulated) compared to high-fat diet control group” value (C57BL/6J mice; 0.05% piperine in HFD, FIG. 2) was 68%, the “decrease in final body weight compared to high-fat diet control group” value (C57BL/6J mice; 0.05% piperine in HFD, FIG. 2) was 40% and the “daily food intake compared to high-fat diet control group” value (C57BL/6J mice; 0.05% piperine in HFD, FIG. 3) was “reduced; also recorded: significant decrease”. The “reduction of food efficiency ratio (FER) compared to high-fat diet control group” value (C57BL/6J mice; 0.05% piperine in HFD, body weight gain / total diet intake, FIG. 3) was 64%, the “reduction of epididymal fat-pad weight compared to high-fat diet control group” value (C57BL/6J mice; [2]) was 63% and the “reduction of mesenteric fat-pad weight compared to high-fat diet control group” value (C57BL/6J mice; [2]) was 68%. The “reduction of perirenal fat-pad weight compared to high-fat diet control group” value (C57BL/6J mice; [2]) was 85%, the “reduction of retroperitoneal fat-pad weight compared to high-fat diet control group” value (C57BL/6J mice; [2]) was 63% and the “reduction of total abdominal (visceral) fat-pad weights compared to high-fat diet control group” value (C57BL/6J mice; [2]) was 66%. For the same compound, the “feed efficiency compared to control group (HFD), in words” value (C57BL/6J mice; piperine-supplemented diet) was “reduced”, the “concentration at which differentiation of preadipocytes 3T3-L1 was decreased in a concentration-dependent manner” value ([1]; piperine 0.1, 1, 10, 50 and 100 μM every other day, vs DMSO, FIG. 1A) was at least 10 µM and the “amount of intracellular fat (OD value at 600 nm of fats stained with Oil Red O)” value ([1]; piperine 0.1-100 μM, stain dissolved in isobutanol, FIG. 1B) was “concentration-dependently reduced the amount of intracellular fat; also recorded: decrease in OD value in a concentration-dependent manner”. The “antioxidant indicators (SOD, CAT, GPX, GSH, vitamin E, vitamin C) in the tissues” value (Swiss albino mice) was “significantly high values”.
